What was measured:
[1] = test system: acetylation of histone H4 in NCI-H460 NSCLC cells; experiment: Western blot with densitometry, histone H4 acetylation; assay type: cell-based, human; settings: for Acetyl H4/H4: vehicle 0,0274
Protocol: For assessing the in vitro effect of ST7612AA1 on acetylation of α-tubulin and histones, NSCLC cells were treated with the test compound at various concentrations (dose-response curve). SAHA 5 μM was used as reference inhibitor. Protein extraction, separation and immunoblotting were performed as previously described. Immunoreactive bands were finally subjected to densitometry analysis by a phosphoimaging system (STORM, Molecular Dynamics), and then the IC50 values were calculated by the “ALLFIT” computer program. The antibodies used are listed in Supplementary Table 2.

Ovarian cancer SKOV-3 = experiment: In vitro proliferation assay (sulphorodamine B); assay type: cell-based; settings: Homo sapiens, SK-OV-3, 72 h, mean ± S.E.M.
[2] = test system: DOHH2 and TMD8 DLBCL cells; experiment: Gene Set Enrichment Analysis (GSEA) of gene expression profiles, ST7612AA1 300 nM 8 hrs; assay type: cell-based, human
[3] = C2.CP.CGP, down-regulated genes
[4] = C2.CP.KEGG, down-regulated genes
[5] = C2.CP.REACTOME, down-regulated genes
[6] = GSEA.C2.CP.BIOCARTA, up-regulated genes
[7] = GSEA.C2.CP.CGP, up-regulated genes
[8] = GSEA.C2.CP.KEGG, up-regulated genes

Question: What does the source list for `CC(=O)SCCCCC[C@H](NC(=O)[C@H]1CCC(=O)N1)C(=O)Nc1ccccc1` [ST7612AA1]?
Answer: Acetyl H4/H4 ([1]; 0,2 µM, NCI-H460): 0,3352; Acetyl H4/H4 ([1]; 0,04 µM, NCI-H460): 0,3092; Acetyl H4/H4 ([1]; 1 µM, NCI-H460): 0,3757; IC50 ([1]; Homo sapiens, NCI-H460, 3 h exposure, Western blot densitometry, read-out: IC50 for increasing the acetylation of histone H4): 4.8 nM; fold more potent in increasing acetylation of histone H4 than of tubulin ([1]; NCI-H460): 40 fold; IC50 (Ovarian cancer SKOV-3): 380 nM; NES GARY_CD5_TARGETS_DN [2, 3]: -2.075; NES HELLER_HDAC_TARGETS_DN [2, 3]: -2.119; NES MANALO_HYPOXIA_DN [2, 3]: -2.295; NES PEART_HDAC_PROLIFERATION_CLUSTER_DN [2, 3]: -2.218; NES PENG_GLUTAMINE_DEPRIVATION_DN [2, 3]: -2.059; NES SCHLOSSER_MYC_TARGETS_AND_SERUM_RESPONSE_DN [2, 3]: -2.302; NES SCHLOSSER_MYC_TARGETS_AND_SERUM_RESPONSE_UP [2, 3]: -2.093; NES SCHLOSSER_MYC_TARGETS_REPRESSED_BY_SERUM [2, 3]: -2.287; NES SCHUHMACHER_MYC_TARGETS_UP [2, 3]: -2.188; NES ZHONG_RESPONSE_TO_AZACITIDINE_AND_TSA_DN [2, 3]: -2.061; NES KEGG_AMINOACYL_TRNA_BIOSYNTHESIS [2, 4]: -2; NES KEGG_BASE_EXCISION_REPAIR [2, 4]: -1.385; NES KEGG_CELL_CYCLE [2, 4]: -1.433; NES KEGG_N_GLYCAN_BIOSYNTHESIS [2, 4]: -1.4288; NES KEGG_ONE_CARBON_POOL_BY_FOLATE [2, 4]: -1.545; NES KEGG_PROTEASOME [2, 4]: -1.717; NES KEGG_PYRIMIDINE_METABOLISM [2, 4]: -1.58; NES KEGG_RENIN_ANGIOTENSIN_SYSTEM [2, 4]: -1.474; NES KEGG_RNA_DEGRADATION [2, 4]: -1.656; NES KEGG_SPLICEOSOME [2, 4]: -1.947; NES REACTOME_ASSEMBLY_OF_THE_PRE_REPLICATIVE_COMPLEX [2, 5]: -1.875; NES REACTOME_DEADENYLATION_DEPENDENT_MRNA_DECAY [2, 5]: -1.915; NES REACTOME_METABOLISM_OF_NON_CODING_RNA [2, 5]: -2.068; NES REACTOME_METABOLISM_OF_RNA [2, 5]: -1.941; NES REACTOME_MITOCHONDRIAL_PROTEIN_IMPORT [2, 5]: -1.944; NES REACTOME_MRNA_PROCESSING [2, 5]: -1.945; NES REACTOME_MRNA_SPLICING [2, 5]: -2.002; NES REACTOME_PROCESSING_OF_CAPPED_INTRON_CONTAINING_PRE_MRNA [2, 5]: -2.059; NES REACTOME_REGULATION_OF_MITOTIC_CELL_CYCLE [2, 5]: -1.812; NES REACTOME_TRNA_AMINOACYLATION [2, 5]: -1.958; NES BIOCARTA_ARAP_PATHWAY [2, 6]: 1.7296; NES BIOCARTA_CCR5_PATHWAY [2, 6]: 1.628; NES BIOCARTA_COMP_PATHWAY [2, 6]: 1.713; NES BERTUCCI_MEDULLARY_VS_DUCTAL_BREAST_CANCER_DN [2, 7]: 2.239; NES CHEN_LVAD_SUPPORT_OF_FAILING_HEART_UP [2, 7]: 2.236; NES DUTERTRE_ESTRADIOL_RESPONSE_24HR_DN [2, 7]: 2.118; NES GALINDO_IMMUNE_RESPONSE_TO_ENTEROTOXIN [2, 7]: 2.132; NES GAUSSMANN_MLL_AF4_FUSION_TARGETS_E_UP [2, 7]: 2.11; NES HELLER_HDAC_TARGETS_SILENCED_BY_METHYLATION_UP [2, 7]: 2.6813; NES HELLER_HDAC_TARGETS_UP [2, 7]: 2.622; NES KINSEY_TARGETS_OF_EWSR1_FLII_FUSION_DN [2, 7]: 2.138; NES PEART_HDAC_PROLIFERATION_CLUSTER_UP [2, 7]: 2.166; NES ZHONG_RESPONSE_TO_AZACITIDINE_AND_TSA_UP [2, 7]: 2.29; NES KEGG_ASTHMA [2, 8]: 1.8598; NES KEGG_AXON_GUIDANCE [2, 8]: 1.813; NES KEGG_CELL_ADHESION_MOLECULES_CAMS [2, 8]: 1.93; NES KEGG_ENDOCYTOSIS [2, 8]: 1.748; NES KEGG_EPITHELIAL_CELL_SIGNALING_IN_HELICOBACTER_PYLORI_INFECTION [2, 8]: 1.747; NES KEGG_FOCAL_ADHESION [2, 8]: 1.8042; NES KEGG_LEUKOCYTE_TRANSENDOTHELIAL_MIGRATION [2, 8]: 1.726; NES KEGG_LYSOSOME [2, 8]: 1.886; NES KEGG_SYSTEMIC_LUPUS_ERYTHEMATOSUS [2, 8]: 2.269; NES KEGG_VIBRIO_CHOLERAE_INFECTION [2, 8]: 1.733
